US10829501B2 (BRISTOL-MYERS SQUIBB COMPANY, priority 2016, dated 2020)

Target: ROCK2 (Homo sapiens, UniProt O75116)
Assay: ROCK2 kinase inhibition assay (LABCHIP 3000 Reader, FITC peptide substrate);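 further: rho kinase reaction read by separating phosphorylated from unphosphorylated peptide on chip, with inhibition of kinase activity computed per concentration across a dose-response series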

Chain of ROCK2 (O75116 whole entry, species assumed): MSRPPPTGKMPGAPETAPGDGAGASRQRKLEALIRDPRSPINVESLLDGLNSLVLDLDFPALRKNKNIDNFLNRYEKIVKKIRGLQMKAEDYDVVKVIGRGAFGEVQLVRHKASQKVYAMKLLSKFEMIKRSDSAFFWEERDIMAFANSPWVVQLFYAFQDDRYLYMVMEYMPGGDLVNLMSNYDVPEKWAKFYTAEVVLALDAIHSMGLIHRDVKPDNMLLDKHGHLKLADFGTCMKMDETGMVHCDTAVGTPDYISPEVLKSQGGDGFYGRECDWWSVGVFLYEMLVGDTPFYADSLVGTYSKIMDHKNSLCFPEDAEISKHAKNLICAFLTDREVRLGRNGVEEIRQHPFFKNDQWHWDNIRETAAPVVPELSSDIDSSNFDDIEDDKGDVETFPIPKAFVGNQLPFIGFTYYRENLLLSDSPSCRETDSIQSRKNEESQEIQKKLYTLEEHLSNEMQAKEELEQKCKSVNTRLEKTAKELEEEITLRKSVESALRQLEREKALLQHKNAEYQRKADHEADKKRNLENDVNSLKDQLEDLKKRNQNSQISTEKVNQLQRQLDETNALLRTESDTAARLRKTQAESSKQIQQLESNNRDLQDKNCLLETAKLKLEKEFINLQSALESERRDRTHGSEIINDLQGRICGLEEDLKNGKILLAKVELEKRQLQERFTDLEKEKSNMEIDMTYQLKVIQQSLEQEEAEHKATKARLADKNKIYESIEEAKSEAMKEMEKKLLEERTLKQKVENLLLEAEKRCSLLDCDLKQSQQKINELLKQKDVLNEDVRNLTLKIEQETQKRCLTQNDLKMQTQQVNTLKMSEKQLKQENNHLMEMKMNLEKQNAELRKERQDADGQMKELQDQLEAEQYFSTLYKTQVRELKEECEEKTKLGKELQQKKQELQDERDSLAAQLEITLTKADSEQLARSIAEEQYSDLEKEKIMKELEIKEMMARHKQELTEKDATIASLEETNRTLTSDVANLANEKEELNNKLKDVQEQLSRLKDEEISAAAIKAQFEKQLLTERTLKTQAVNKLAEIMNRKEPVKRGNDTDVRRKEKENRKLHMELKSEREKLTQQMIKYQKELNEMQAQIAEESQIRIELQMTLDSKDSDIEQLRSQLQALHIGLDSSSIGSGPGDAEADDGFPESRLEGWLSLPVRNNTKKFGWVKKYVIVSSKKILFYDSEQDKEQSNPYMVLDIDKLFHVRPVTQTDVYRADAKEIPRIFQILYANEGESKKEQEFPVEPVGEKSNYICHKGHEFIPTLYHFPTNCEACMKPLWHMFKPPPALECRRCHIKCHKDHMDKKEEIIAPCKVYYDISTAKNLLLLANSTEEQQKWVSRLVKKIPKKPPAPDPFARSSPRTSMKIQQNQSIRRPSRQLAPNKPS

Row | IC50 [nM] | SMILES
1 | 5 to 50 | NC(=O)c1cccnc1O[C@H]1CC2(C[C@H](NC(=O)c3cnn4c(C5CC5)c(OC5COC5)ccc34)C2)C1 (stereo partly drawn) [Example 343, N-((aR)-6-((3-carbamoylpyridin-2-yl)oxy)spiro[3.3]heptan-2-yl)-7-cyclopropyl-6-(oxetan-3-yloxy)pyrazolo[1,5-a]pyridine-3-carboxamide]
2 | 250 to 2500 | NC(=O)c1cccnc1O[C@H]1CC2(C[C@H](NC(=O)c3cnc4cnccn34)C2)C1 (stereo partly drawn) [Example 345, N-((aR)-6-((3-carbamoylpyridin-2-yl)oxy)spiro[3.3]heptan-2-yl)imidazo[1,2-a]pyrazine-3-carboxamide]
3 | 50 to 250 | NC(=O)c1cccnc1O[C@H]1CC2(C[C@H](NC(=O)c3cnc4c(C(F)(F)F)cccn34)C2)C1 (stereo partly drawn) [Example 346, N-((aR)-6-((3-carbamoylpyridin-2-yl)oxy)spiro[3.3]heptan-2-yl)-8-(trifluoromethyl)imidazo[1,2-a]pyridine-3-carboxamide]
4 | 50 to 250 | COc1ccn2c(C(=O)N[C@H]3CC4(C3)C[C@H](Oc3ncccc3C(N)=O)C4)cnc2c1 (stereo partly drawn) [Example 348, N-((aR)-6-((3-carbamoylpyridin-2-yl)oxy)spiro[3.3]heptan-2-yl)-7-methoxyimidazo[1,2-a]pyridine-3-carboxamide]
5 | 5 to 50 | NC(=O)c1cccnc1O[C@H]1CC2(C[C@H](NC(=O)c3cnn4cc(N5CC6(COC6)C5)ccc34)C2)C1 (stereo partly drawn) [Example 349, N-((aR)-6-((3-carbamoylpyridin-2-yl)oxy)spiro[3.3]heptan-2-yl)-6-(2-oxa-6-azaspiro[3.3]heptan-6-yl)pyrazolo[1,5-a]pyridine-3-carboxamide]
6 | 50 to 250 | N#Cc1ccn2c(C(=O)N[C@H]3CC4(C3)C[C@H](Oc3ncccc3C(N)=O)C4)cnc2c1 (stereo partly drawn) [Example 353, N-((aR)-6-((3-carbamoylpyridin-2-yl)oxy)spiro[3.3]heptan-2-yl)-7-cyanoimidazo[1,2-a]pyridine-3-carboxamide]
7 | 50 to 250 | N#Cc1cccn2c(C(=O)N[C@H]3CC4(C3)C[C@H](Oc3ncccc3C(N)=O)C4)cnc12 (stereo partly drawn) [Example 354, N-((aR)-6-((3-carbamoylpyridin-2-yl)oxy)spiro[3.3]heptan-2-yl)-8-cyanoimidazo[1,2-a]pyridine-3-carboxamide]
8 | 5 to 50 | NC(=O)c1cccnc1O[C@H]1CC2(C[C@H](NC(=O)c3cnc4cc(N5CCOCC5)ccn34)C2)C1 (stereo partly drawn) [Example 356, N-((aR)-6-((3-carbamoylpyridin-2-yl)oxy)spiro[3.3]heptan-2-yl)-7-morpholinoimidazo[1,2-a]pyridine-3-carboxamide]
9 | 5 to 50 | NC(=O)c1cccnc1O[C@H]1CC2(C[C@H](NC(=O)c3cnc4cc(NCC(F)F)ccn34)C2)C1 (stereo partly drawn) [Example 358, N-((aR)-6-((3-carbamoylpyridin-2-yl)oxy)spiro[3.3]heptan-2-yl)-7-((2,2-difluoroethyl)amino)imidazo[1,2-a]pyridine-3-carboxamide]

The remaining lines, values behind:

Row | SMILES | IC50 [nM]
10 | NC(=O)c1cccnc1O[C@H]1CC2(C[C@H](NC(=O)c3cnn4cc(OC5CCC5)ccc34)C2)C1 (stereo partly drawn) [Example 338, N-((aR)-6-((3-carbamoylpyridin-2-yl)oxy)spiro[3.3]heptan-2-yl)-6-cyclobutoxypyrazolo[1,5-a]pyridine-3-carboxamide] | 5 to 50
11 | NC(=O)c1cccnc1O[C@H]1CC2(C[C@H](NC(=O)c3cnn4cc(OC5CCS(=O)(=O)CC5)ccc34)C2)C1 (stereo partly drawn) [Example 339, N-((aR)-6-((3-carbamoylpyridin-2-yl)oxy)spiro[3.3]heptan-2-yl)-6-((1,1-dioxidotetrahydro-2H-thiopyran-4-yl)oxy)pyrazolo[1,5-a]pyridine-3-carboxamide] | 5 to 50
12 | NC(=O)c1cccnc1O[C@H]1CC2(C[C@H](NC(=O)c3cnn4c(C5CC5)c(OCCOCC(F)(F)F)ccc34)C2)C1 (stereo partly drawn) [Example 340, N-((aR)-6-((3-carbamoylpyridin-2-yl)oxy)spiro[3.3]heptan-2-yl)-7-cyclopropyl-6-(2-(2,2,2-trifluoroethoxy)ethoxy)pyrazolo[1,5-a]pyridine-3-carboxamide] | 5 to 50
13 | NC(=O)c1cccnc1O[C@H]1CC2(C[C@H](NC(=O)c3cnn4c(C5CC5)c(OC(CF)CF)ccc34)C2)C1 (stereo partly drawn) [Example 341, N-((aR)-6-((3-carbamoylpyridin-2-yl)oxy)spiro[3.3]heptan-2-yl)-7-cyclopropyl-6-((1,3-difluoropropan-2-yl)oxy)pyrazolo[1,5-a]pyridine-3-carboxamide] | < 5
14 | NC(=O)c1cccnc1O[C@H]1CC2(C[C@H](NC(=O)c3cnn4c(C5CC5)c(OCC5CCCO5)ccc34)C2)C1 (stereo partly drawn) [Example 342, N-((aR)-6-((3-carbamoylpyridin-2-yl)oxy)spiro[3.3]heptan-2-yl)-7-cyclopropyl-6-((tetrahydrofuran-2-yl)methoxy)pyrazolo[1,5-a]pyridine-3-carboxamide] | < 5
15 | NC(=O)c1cccnc1O[C@H]1CC2(C[C@H](NC(=O)c3cnn4c(C5CC5)c(OCC5CCO5)ccc34)C2)C1 (stereo partly drawn) [Example 344, N-((aR)-6-((3-carbamoylpyridin-2-yl)oxy)spiro[3.3]heptan-2-yl)-7-cyclopropyl-6-(oxetan-2-ylmethoxy)pyrazolo[1,5-a]pyridine-3-carboxamide] | 5 to 50
16 | COC(=O)N1CC(Oc2ccc3c(C(=O)N[C@H]4CC5(C4)C[C@H](Oc4ncccc4C(N)=O)C5)cnn3c2)C1 (stereo partly drawn) [Example 347, methyl 3-((3-(((aR)-6-((3-carbamoylpyridin-2-yl)oxy)spiro[3.3]heptan-2-yl)carbamoyl)pyrazolo[1,5-a]pyridin-6-yl)oxy)azetidine-1-carboxylate] | 5 to 50
17 | NC(=O)c1cccnc1O[C@H]1CC2(C[C@H](NC(=O)c3cnn4cc(OC5CC(F)(F)C5)ccc34)C2)C1 (stereo partly drawn) [Example 350, N-((aR)-6-((3-carbamoylpyridin-2-yl)oxy)spiro[3.3]heptan-2-yl)-6-(3,3-difluorocyclobutoxy)pyrazolo[1,5-a]pyridine-3-carboxamide] | 5 to 50
18 | NC(=O)c1cccnc1O[C@H]1CC2(C[C@H](NC(=O)c3cnn4c(C5CC5)c(OC5CCS(=O)(=O)CC5)ccc34)C2)C1 (stereo partly drawn) [Example 351, N-((aR)-6-((3-carbamoylpyridin-2-yl)oxy)spiro[3.3]heptan-2-yl)-7-cyclopropyl-6-((1,1-dioxidotetrahydro-2H-thiopyran-4-yl)oxy)pyrazolo[1,5-a]pyridine-3-carboxamide] | < 5
19 | CS(=O)(=O)CCCOc1ccc2c(C(=O)N[C@H]3CC4(C3)C[C@H](Oc3ncccc3C(N)=O)C4)cnn2c1C1CC1 (stereo partly drawn) [Example 352, N-((aR)-6-((3-carbamoylpyridin-2-yl)oxy)spiro[3.3]heptan-2-yl)-7-cyclopropyl-6-(3-(methylsulfonyl)propoxy)pyrazolo[1,5-a]pyridine-3-carboxamide] | 5 to 50
20 | NC(=O)c1cccnc1O[C@H]1CC2(C[C@H](NC(=O)c3cnn4cc(N5CC(CO)(CO)C5)ccc34)C2)C1 (stereo partly drawn) [Example 355] | 50 to 250
21 | Cn1cc(-c2ccc3c(C(=O)N[C@H]4CC5(C4)C[C@H](Oc4ncccc4C(N)=O)C5)cnn3c2C2CC2)cn1 (stereo partly drawn) [Example 357, N-((aR)-6-((3-carbamoylpyridin-2-yl)oxy)spiro[3.3]heptan-2-yl)-7-cyclopropyl-6-(1-methyl-1H-pyrazol-4-yl)pyrazolo[1,5-a]pyridine-3-carboxamide] | < 5
